Laboratory results taken from PubChem BioAssay AID1963973 (Molecular Pharmacology Branch, DTP, NCI, 2024).

Tested on: 883617-216-R-J1-PDC tumor spheroids, viability
Experiment: Anticancer human tumor 883617-216-R-J1-PDC patient-derived bladder carcinoma cell line growth inhibition [PI3K]
Settings: spheroids with HUVEC and MSC; for IC50: curve of first compound; for viability, T/C: stronger effect = lower value
Description: Combinatorial screen of targeted agents with the PI3K inhibitors inavolisib, alpelisib, duvelisib, and copanlisib in multi-cell type tumor spheroids
A high-throughput screen of multi-cell type tumor spheroids was designed to identify active combinations of targeted small molecules and PI3K pathway inhibitors. Complex spheroids include a stromal component modeled by human endothelial cells (HUVEC) and fibroblasts modeled by human mesenchymal stem cells (MSCs). The concentration ranges selected for each drug and investigational agent were based upon clinically achievable concentrations if the clinical Cmax of the agent was known.
Compounds. The drugs and investigational agents: inavolisib (NSC800729), alpelisib (NSC765974), duvelisib (NSC772469), copanlisib (NSC816437), ipatasertib (NSC767898), afuresertib (NSC778305), talazoparib (NSC767125), sapanisertib (NSC764658), selumetinib (NSC741078), tovorafenib (DAY101, NSC766906), vemurafenib (NSC761431), ravoxertinib (NSC781343), sotorasib (NSC818433), MRTX1133 (NSC 836407), abemaciclib (NSC 768073), palbociclib (NSC758247), venetoclax (NSC 766270), SY5609 (NSC837396), enzalutamide (NSC755605), and darolutamide (NSC825331), were obtained from the National Cancer Institute (NCI) Developmental Therapeutics Program Chemical Repository. The FDA-approved anticancer drug set is available from the NCI Developmental Therapeutics Program. […] The stock solutions were prepared in dimethyl sulfoxide (DMSO, Sigma-Aldrich, St. Louis, MO, cat. D2650) at 800-fold the tested concentration and stored at -70 degrees C prior to their use. All drugs and investigational agents were tested over a range starting from a high concentration at or near the clinical Cmax and decreasing in half-log increments. If the clinical Cmax for an agent had not been determined, the highest concentration tested was 10 microM.
Cell Culture. All cells were maintained in an incubator at 37 degrees C and 5% CO2 with 95% humidity. The PDC lines were cultured according to standard operating procedures established by the NCI PDMR (https://pdmr.cancer.gov/sops/default.htm). All PDCs were thawed and cultured in Matrigel-coated flasks prepared with a working solution of 1X Ham's F-12 nutrient mix, without supplementation (Invitrogen, Waltham, MA, cat. 11765054), 100 U/mL penicillin-streptomycin (Invitrogen, cat. 15140122), and 2.5% Matrigel (Corning Inc., Corning, NY, cat. 354248) for the first three passages. The 354836-022-R-J1-PDC, 475296-252-R-J1-PDC, and 997726-040-R-J2-PDC lines were cultured in 6A media, which includes advanced DMEM/F-12 (Thermo Fisher Scientific, cat. 12634028), 10 mM HEPES (Thermo Fisher Scientific, cat. 15630080), 1X GlutaMAX supplement (Thermo Fisher Scientific, cat. 35050061), 0.1 mg/mL primocin (InvivoGen, San Diego, CA, cat. ant-pm-2), 10% defined fetal bovine serum, heat inactivated (HyClone Laboratories Inc., Logan, UT, cat. SH30070.03HI), 50% L-WRN conditioned media (ATCC, cat. CRL-3276), 1.25 mM N-Acetyl-L-cysteine (Sigma-Aldrich, cat. A9165), 10 mM nicotinamide (Sigma-Aldrich, cat. N0636), 1X B-27 supplement (Thermo Fisher Scientific, cat. 17504044), 1X N-2 supplement (Thermo Fisher Scientific, cat. 17502048), and 10 microM Y-27632 dihydrochloride (Tocris Bioscience, Bristol, United Kingdom, cat. 1254). The 624824-186-R-J2-PDC line was cultured in 6C/Colon 1B media, which includes all 6A media components plus 50 ng/mL human EGF recombinant protein (Thermo Fisher Scientific, cat. PHG0311). […]
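Also: spheroids exposed to agents for 7 days before the viability read.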

Cn1cnc2c(F)c(Nc3ccc(Br)cc3Cl)c(C(=O)NOCCO)cc21 + CC(Nc1ccc2c(c1)OCCn1cc(N3C(=O)OCC3C(F)F)nc1-2)C(N)=O
IC50 (second compound 0.00316 µM): 40.6 nM | IC50 (second compound 0.01 µM): 34.9 nM | IC50 (second compound 0.0316 µM): 10.3 nM | IC50 (second compound 0.1 µM): 13.4 nM | IC50 (second compound 0.316 µM): < 9.49 nM | IC50 (second compound 1 µM): < 9.49 nM | viability, T/C (second compound 0.00316 µM, first compound 0.00949 µM): 64.5% | viability, T/C (second compound 0.00316 µM, first compound 0.03 µM): 57.4% | viability, T/C (second compound 0.00316 µM, first compound 0.0949 µM): 35.1% | viability, T/C (second compound 0.00316 µM, first compound 0.3 µM): 35.3% | viability, T/C (second compound 0.00316 µM, first compound 0.949 µM): 26.5% | viability, T/C (second compound 0.00316 µM, first compound 3 µM): 19.6% | viability, T/C (second compound 0.01 µM, first compound 0.00949 µM): 62.9% | viability, T/C (second compound 0.01 µM, first compound 0.03 µM): 47.3% | viability, T/C (second compound 0.01 µM, first compound 0.0949 µM): 45.9% | viability, T/C (second compound 0.01 µM, first compound 0.3 µM): 30.6% | viability, T/C (second compound 0.01 µM, first compound 0.949 µM): 26.8% | viability, T/C (second compound 0.01 µM, first compound 3 µM): 19.4% | viability, T/C (second compound 0.0316 µM, first compound 0.00949 µM): 51.8% | viability, T/C (second compound 0.0316 µM, first compound 0.03 µM): 36% | viability, T/C (second compound 0.0316 µM, first compound 0.0949 µM): 25% | viability, T/C (second compound 0.0316 µM, first compound 0.3 µM): 25.2% | viability, T/C (second compound 0.0316 µM, first compound 0.949 µM): 20.1% | viability, T/C (second compound 0.0316 µM, first compound 3 µM): 14.2% | viability, T/C (second compound 0.1 µM, first compound 0.00949 µM): 61.2% | viability, T/C (second compound 0.1 µM, first compound 0.03 µM): 21.9% | viability, T/C (second compound 0.1 µM, first compound 0.0949 µM): 23.4% | viability, T/C (second compound 0.1 µM, first compound 0.3 µM): 18% | viability, T/C (second compound 0.1 µM, first compound 0.949 µM): 16.7% | viability, T/C (second compound 0.1 µM, first compound 3 µM): 7.35% | viability, T/C (second compound 0.316 µM, first compound 0.00949 µM): 22.1% | viability, T/C (second compound 0.316 µM, first compound 0.03 µM): 16.2% | viability, T/C (second compound 0.316 µM, first compound 0.0949 µM): 10.5% | viability, T/C (second compound 0.316 µM, first compound 0.3 µM): 11.5% | viability, T/C (second compound 0.316 µM, first compound 0.949 µM): 8.13% | viability, T/C (second compound 0.316 µM, first compound 3 µM): 4.48% | viability, T/C (second compound 1 µM, first compound 0.00949 µM): 13.3% | viability, T/C (second compound 1 µM, first compound 0.03 µM): 9.92% | viability, T/C (second compound 1 µM, first compound 0.0949 µM): 7.16% | viability, T/C (second compound 1 µM, first compound 0.3 µM): 7.46% | viability, T/C (second compound 1 µM, first compound 0.949 µM): 6.08% | viability, T/C (second compound 1 µM, first compound 3 µM): 3.09%
